In article PMC9499324, “Glycyrrhizic Acid Derivatives Bearing Amino Acid Residues in the Carbohydrate Part as Dengue Virus E Protein Inhibitors: Synthesis and Antiviral Activity” (International Journal of Molecular Sciences, 2022):
pIC50: −log10 of the molar value.

Key:
Type in all cases: cell-based, Dengue virus type 2
DENV2 prME/ZIKV SRIPs = test: E protein-mediated attachment assay with chimeric DENV2 prME/ZIKV SRIPs on Vero E6 cells; conditions: Vero C1008, 1 h, read-out: IC50 of E-mediated attachment against DENV2 prME/ZIKV SRIPs
Description: Figure 7 Attachment inhibition of chimeric DENV2 prM-E/ZIKV and wild-type ZIKV SRIPs by active GL derivatives 3 and 11. Vero E6 cells were pre-cooled and incubated with fresh-prepared mixtures of DENV2 prM-E/ZIKV or wild-type ZIKV SRIPs, with active GL derivatives 3 (A), and 11 (B) at 4 °C for 1 h, respectively. After the removal of the mixtures, the cells were kept at 37 °C for 18 h and then an immunofluorescent assay with anti-ZIKV NS1 antibodies plus DAPI staining was performed. Finally, the inhibition percentage of SRIP attachment infectivity was measured as follows: 1-(percentage of ZIKV NS1 positivity in treated cells/ percentage of ZIKV NS1 positivity in mock-treated cells). * p < 0.05; *** p < 0.001 compared with untreated, infected cells.
DNA-launched cytomegaloviruses (CMV) promoter-driven JEV and ZIKV replicons had been constructed, as described in our prior reports. […] After the removal of the mixture (the compound and SRIP), the cells were incubated at 37 °C for 18 h, and then were analyzed by immunofluorescent assay with anti-JEV NS3 and anti-ZIKV NS5 antibodies, respectively, plus DAPI staining for determining the residual infectivity of wild-type and chimeric SRIPs, as described above.

DENV2 [1] = test: DENV2 infectivity inhibition (anti-NS4B immunofluorescence) in Vero E6 cells; conditions: Dengue virus; for inhibition at 10 µM: Vero C1008, 10 μM compound, DENV2, Vero E6 cells, 96 h, read-out: Inhibition (%) at 10 μM (reduction of NS4B-positive cells)
Source text: […] In CPE and infectivity reduction assays, […], and then photographed by microscope for examining the levels of DENV2-induced CPE in infected cells treated with or without GL conjugate. Meanwhile, the cells were further performed using immunofluorescence assay (IFA) with anti-DENV NS4B antibodies (GeneTex, Inc., Hsinchu, Taiwan) and anti-rabbit IgG antibodies conjugated with AF555 (ThermoFisher, Waltham, MA, USA) plus DAPI (4′,6-diamidino-2-phenylindole) nuclear staining. Finally, the DENV-2 infectivity was measured according to the ratio of DENV NS4B-positive cells to DAPI-stained cells in the well of mock-treated or treated cells, as described in [45, 59, 60].

DENV2 [2] = test: DENV2-induced cytopathic effect (CPE) reduction screening in Vero E6 cells; conditions: Dengue virus, Vero C1008; 10 μM compound, DENV2, Vero E6 cells, 96 h; read-out: CPE Reduction at 10 μM
Description: In the antiviral screening assay, each tested GL conjugate at 10 μM was used to survey the anti-DENV activity in Vero E6 cells using cytopathic effect (CPE) and infectivity reduction assays as described in our prior report. In CPE and infectivity reduction assays, Vero E6 cells were infected by DENV2 at an MOI of 0.005 and simultaneously treated 10 μM of indicated GL conjugate for 96 h, and then photographed by microscope for examining the levels of DENV2-induced CPE in infected cells treated with or without GL conjugate. Meanwhile, the cells were further performed using immunofluorescence assay (IFA) with anti-DENV NS4B antibodies (GeneTex, Inc., Hsinchu, Taiwan) and anti-rabbit IgG antibodies conjugated with AF555 (ThermoFisher, Waltham, MA, USA) plus DAPI (4′,6-diamidino-2-phenylindole) nuclear staining. Finally, the DENV-2 infectivity was measured according to the ratio of DENV NS4B-positive cells to DAPI-stained cells in the well of mock-treated or treated cells, as described in [45, 59, 60].

DENV2 [3] = test: DENV2 yield reduction assay (TCID50) in Vero E6 cells
Description: Ten-fold serial dilutions of the cultured media of treated/infected cells harvested in the antiviral potency assay were applied to a monolayer of Vero E6 cells in the 96-well plates. After 96-h incubation, the number of CPE in each well of the dilution was calculated, and the indicated dilution with a 50% positivity rate of CPE in the cell culture was expressed as the […] (50%) tissue culture infectious dose (TCID50).

[4] = Dengue virus, DENV2, Vero C1008, 96 h, read-out: IC50 on the viral yield of DENV2, Vero E6 cells, TCID50 assay, 96 h

In the case of COC(=O)[C@H](NC(=O)[C@H]1O[C@@H](O[C@H]2[C@H](OC3CC[C@@]4(C)C(CC[C@]5(C)C4C(=O)C=C4C6C[C@@](C)(C(=O)O)CC[C@]6(C)CC[C@]45C)C3(C)C)O[C@H](C(=O)N[C@@H](C(=O)OC)C(C)C)[C@@H](O)[C@@H]2O)[C@H](O)[C@@H](O)[C@@H]1O)C(C)C (stereo partly drawn) [Compound 3, 3-O-{2-O-[N-(β-D-Glucopyranosyluronoyl)-D-valinemethyl ester]-N-(β-D-glucopyranosyluronoyl)-D-valinemethyl ester}-(3β, 20β)-11-oxo-30-noroleane-12-ene-30-oic Acid], the pIC50 (DENV2 prME/ZIKV SRIPs) was 5.55, the inhibition at 10 µM (DENV2 [1]) was 90.7% and the inhibition at 10 µM (DENV2 [2]) was 75 to 100%. The pIC50 (DENV2 [3]; [4]) was 6.30.
Work on CCOC(=O)[C@H](Cc1ccccc1)NC(=O)[C@H]1O[C@@H](O[C@H]2[C@H](OC3CC[C@@]4(C)C(CC[C@]5(C)C4C(=O)C=C4C6C[C@@](C)(C(=O)O)CC[C@]6(C)CC[C@]45C)C3(C)C)O[C@H](C(=O)N[C@@H](Cc3ccccc3)C(=O)OCC)[C@@H](O)[C@@H]2O)[C@H](O)[C@@H](O)[C@@H]1O (stereo partly drawn) [Compound 11, 3-O-{2-O-[N-(β-D-Glucopyranosyluronoyl)-L-phenylalanineethyl ester]-N-(β-D-Glucopyranosyluronoyl)-L-phenylalanineethyl ester}-(3β, 20β)-11-oxo-30-noroleane-12-ene-30-oic Acid] yielded a pIC50 (DENV2 prME/ZIKV SRIPs) of 5.90, an IC50 (DENV2 [1]; DENV2, Vero C1008, read-out: Inhibition of DENV2 Infectivity (IC50, μM), Vero E6 cells) of 0.17 to 0.5 µM and an inhibition at 10 µM (DENV2 [1]) of 91.3%. The inhibition at 10 µM (DENV2 [2]) was 75 to 100%, the pIC50 (DENV2 [3]; [4]) was 6.70 and the pIC50 (DENV2 [3]; read-out: IC50 on the viral yield of DENV2, Vero E6 cells, TCID50 assay, 96 h) was 6.77.
